Laboratory results: ChEMBL document CHEMBL1201862, “PubChem BioAssay data set” (2004)
The source made the active and inactive calls.

Tests used:
[1] = Luminescence Cell-Based Dose Retest to Confirm Inhibitors of Cancer Stem Cells. [Related pubchem assays (depositor defined):AID2717, AID2721]; type: functional; details: Homo sapiens
[2] = cytotoxicity in HMLE control line with eGFP shRNA, dose response, counter-screen for HMLE_sh_ECad selective toxicity project, cell-based, HMLE_sh_eGFP, luminescence (AID 463074); type: functional, Homo sapiens;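 also: HMLE human mammary epithelial cells expressing control shRNA against eGFP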
[3] = tested on: Jurkat; test: antigen receptor-induced NF-kB inhibitors, dose response, Jurkat, luciferase reporter, luminescence, B- and T-cell (AID 489004); type: functional, cell-based; details: Homo sapiens;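 also: NF-kB luciferase reporter Jurkat cells stimulated with PMA plus ionomycin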
[4] = cytotoxicity in HEK-293T NF-kB-Luc cells, dose response, cytotoxicity control for B/T-cell NF-kB inhibitor project, cell-based, uHTS hits (AID 489019); type: functional;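 also: IC50 reflects cytotoxicity as loss of cell viability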

Structure (SMILES) | AC50 [1] | AC50 [2] | IC50 [3] | IC50 [4]
COc1ccc(N=C(S)N(C)N=C(S)Nc2ccc(OC)cc2)cc1 | 16.3 µM (active) | 22 µM (active) |  | 
CCCOc1ccc(C(=O)N2CCN(c3ccc(N)cc3Cl)CC2)cc1 | 10.1 µM (active) | 47.8 µM (active) |  | 
CC(C)(O)c1[nH]c2ccc(C#N)cc2c1C(C)(C)O |  |  | > 80 µM (inactive) | > 80 µM (inactive)
